We go through 12 compounds from patent US20060229299A1, “5ht2c Receptor antagonists in the treatment of schizophrenia” (priority 2003, published 2006).

In series [1] the test system is 5-HT2C receptor relative to 5-HT2A and D2 receptors. Description: Relative 5-HT2C affinity (formula I, sum of 5-HT2C/5-HT2A and 5-HT2C/D2 affinity ratios).
In another series the target is D2 receptor (Homo sapiens, UniProt P14416). The conditions noted are these: Table 3; expressed as pKi or pKd values; known affinities; cited from earlier work.
A further series has as its target 5-HT2A receptor (Homo sapiens, UniProt P28223). The conditions noted are these: Table 3; expressed as pKi or pKd values; known affinities; cited from earlier work.
The target in series [2] is α1-adrenoceptor. To be noted: human, expressed as KD; cited from earlier work.
On the set-up of series [3]: key: 1-high; 2-medium; 3-low probability. The conditions noted are these: Table 4A; grading of probability from literature reports; cited from earlier work.
Series [4] has as its target T1, 5-HT2C receptor (Homo sapiens, UniProt P28335).
T1 sequence (P28335 33-458): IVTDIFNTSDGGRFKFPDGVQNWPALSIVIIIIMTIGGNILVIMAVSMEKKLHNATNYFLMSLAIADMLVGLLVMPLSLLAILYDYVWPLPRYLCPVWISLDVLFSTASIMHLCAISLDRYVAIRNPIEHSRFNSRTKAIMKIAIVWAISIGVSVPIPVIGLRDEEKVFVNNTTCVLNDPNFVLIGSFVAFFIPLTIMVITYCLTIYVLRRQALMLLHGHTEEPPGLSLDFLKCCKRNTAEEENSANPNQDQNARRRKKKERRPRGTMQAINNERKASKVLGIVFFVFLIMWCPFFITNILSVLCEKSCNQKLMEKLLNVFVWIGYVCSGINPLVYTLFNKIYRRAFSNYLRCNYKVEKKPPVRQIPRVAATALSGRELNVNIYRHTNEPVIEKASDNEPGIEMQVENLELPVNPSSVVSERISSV
The conditions noted are these: Table 3; expressed as pKi or pKd values; known affinities; cited from earlier work.

Series [5] has as its target α1-adrenoceptor. To be noted: species for α1 not given; cited from earlier work.
Another series has as its target sigma, σ receptor. To be noted: guinea-pig; cited from earlier work.
The target of series [6] is D2-S (short form of D2 receptor) (Homo sapiens, UniProt P14416). To be noted: cited from earlier work.
In series [7] the target is 5-HT7 receptor (Mus musculus, UniProt P32304). To be noted: cited from earlier work.
In the next series the target is α2-adrenoceptor. To be noted: cited from earlier work.
Series [8] addresses mACh, muscarinic acetylcholine receptor. The conditions noted are these: rat; cited from earlier work.
For a further series, the target named is T2, D4 dopamine receptor (Homo sapiens, UniProt P21917).
T2 sequence (P21917 1-419): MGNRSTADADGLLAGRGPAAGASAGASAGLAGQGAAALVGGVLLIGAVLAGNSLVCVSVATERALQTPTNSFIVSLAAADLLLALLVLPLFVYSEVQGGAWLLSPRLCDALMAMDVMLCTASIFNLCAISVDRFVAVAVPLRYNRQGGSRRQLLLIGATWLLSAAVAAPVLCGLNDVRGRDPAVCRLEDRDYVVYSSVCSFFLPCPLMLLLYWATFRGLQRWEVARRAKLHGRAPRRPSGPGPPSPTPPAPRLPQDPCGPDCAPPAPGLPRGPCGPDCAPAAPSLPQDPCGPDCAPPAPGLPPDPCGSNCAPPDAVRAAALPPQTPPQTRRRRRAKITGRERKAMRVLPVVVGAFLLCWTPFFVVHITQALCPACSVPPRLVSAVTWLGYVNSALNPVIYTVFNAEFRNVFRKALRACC
The conditions noted are these: human; cited from earlier work.

In a further series the target is T3, 5-HT3 receptor (Mus musculus, UniProt P23979).
T3 sequence (P23979 24-489): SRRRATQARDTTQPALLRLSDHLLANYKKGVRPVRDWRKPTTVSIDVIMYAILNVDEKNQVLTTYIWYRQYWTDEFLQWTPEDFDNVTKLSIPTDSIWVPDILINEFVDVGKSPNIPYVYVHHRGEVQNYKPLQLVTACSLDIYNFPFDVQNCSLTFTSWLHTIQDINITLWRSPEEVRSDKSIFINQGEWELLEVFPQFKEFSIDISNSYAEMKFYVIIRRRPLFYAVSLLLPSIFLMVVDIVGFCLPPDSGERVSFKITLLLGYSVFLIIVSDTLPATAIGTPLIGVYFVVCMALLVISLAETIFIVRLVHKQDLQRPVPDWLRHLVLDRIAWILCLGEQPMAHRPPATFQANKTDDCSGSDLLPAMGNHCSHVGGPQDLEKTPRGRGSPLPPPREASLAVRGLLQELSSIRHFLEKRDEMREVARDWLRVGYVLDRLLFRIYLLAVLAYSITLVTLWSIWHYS
To be noted: cited from earlier work.

A further series has as its target T4, 5-HT1A receptor (Rattus norvegicus, UniProt P19327).
T4 sequence (P19327 1-422): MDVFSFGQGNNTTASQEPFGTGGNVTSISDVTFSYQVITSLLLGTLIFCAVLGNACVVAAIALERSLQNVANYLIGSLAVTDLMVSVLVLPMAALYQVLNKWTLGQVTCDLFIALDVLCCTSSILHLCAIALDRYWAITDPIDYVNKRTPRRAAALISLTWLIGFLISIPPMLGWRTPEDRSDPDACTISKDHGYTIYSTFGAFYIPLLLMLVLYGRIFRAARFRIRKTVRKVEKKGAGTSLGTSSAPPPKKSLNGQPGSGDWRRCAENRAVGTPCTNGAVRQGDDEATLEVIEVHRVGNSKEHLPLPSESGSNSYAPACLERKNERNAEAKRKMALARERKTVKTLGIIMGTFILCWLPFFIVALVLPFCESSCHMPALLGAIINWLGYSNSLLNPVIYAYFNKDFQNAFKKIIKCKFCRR
To be noted: cited from earlier work.

For series [9], the target named is T5, 5-HT2C receptor (Sus scrofa, UniProt K7GSR7).
T5 sequence (K7GSR7 1-457): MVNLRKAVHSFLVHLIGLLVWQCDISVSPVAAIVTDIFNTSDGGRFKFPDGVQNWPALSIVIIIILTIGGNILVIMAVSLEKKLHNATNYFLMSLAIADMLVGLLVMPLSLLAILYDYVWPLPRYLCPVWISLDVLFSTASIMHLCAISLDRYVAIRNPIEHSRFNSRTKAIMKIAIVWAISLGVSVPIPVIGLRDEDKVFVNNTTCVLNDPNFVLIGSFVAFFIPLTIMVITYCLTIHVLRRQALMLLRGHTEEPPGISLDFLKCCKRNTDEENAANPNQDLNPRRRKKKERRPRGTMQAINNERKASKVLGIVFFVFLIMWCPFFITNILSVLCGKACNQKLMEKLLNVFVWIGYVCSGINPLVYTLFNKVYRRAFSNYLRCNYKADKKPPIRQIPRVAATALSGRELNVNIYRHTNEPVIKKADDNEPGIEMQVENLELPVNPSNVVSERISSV
The conditions noted are these: pig; cited from earlier work.

For series [10], the target named is D2-L (long form of D2 receptor) (Homo sapiens, UniProt P14416). To be noted: cited from earlier work.
On the set-up of series [11]: key: 1-high; 2-medium; 3-low probability. The conditions noted are these: Table 4A; grading of probability from literature reports; cited from earlier work. This is another data set of the same source.
On the set-up of series [12]: key to Weight Gain: 1-high; 2-medium; 3-low probability. To be noted: cited from earlier work; for Weight Gain: Table 4A, grading of probability from literature reports.
The target of another series is 5-HT6 receptor (Rattus norvegicus, UniProt P31388). To be noted: cited from earlier work.
Series [13] addresses 5-HT7 receptor (Rattus norvegicus, UniProt P32305). The conditions noted are these: cited from earlier work.
Series [14] deals with D1 dopamine receptor (Homo sapiens, UniProt P21728). To be noted: cited from earlier work.
Series [15] concerns the target D1 dopamine receptor (Rattus norvegicus, UniProt P18901). The conditions noted are these: cited from earlier work.
Series [16] has as its target α1-adrenoceptor. The conditions noted are these: rat; cited from earlier work.
On the set-up of series [17]: key: 1-high; 2-medium; 3-low probability. The conditions noted are these: Table 4A; grading of probability from literature reports; cited from earlier work. This is another data set of the same source.
[18] abbreviates: Table 3, calculated from known 5-HT2C/5-HT2A/D2 affinities.

Like-named read-outs stand apart in the source and are kept apart here.

Sequence of 5-HT2A receptor (P28223 whole entry): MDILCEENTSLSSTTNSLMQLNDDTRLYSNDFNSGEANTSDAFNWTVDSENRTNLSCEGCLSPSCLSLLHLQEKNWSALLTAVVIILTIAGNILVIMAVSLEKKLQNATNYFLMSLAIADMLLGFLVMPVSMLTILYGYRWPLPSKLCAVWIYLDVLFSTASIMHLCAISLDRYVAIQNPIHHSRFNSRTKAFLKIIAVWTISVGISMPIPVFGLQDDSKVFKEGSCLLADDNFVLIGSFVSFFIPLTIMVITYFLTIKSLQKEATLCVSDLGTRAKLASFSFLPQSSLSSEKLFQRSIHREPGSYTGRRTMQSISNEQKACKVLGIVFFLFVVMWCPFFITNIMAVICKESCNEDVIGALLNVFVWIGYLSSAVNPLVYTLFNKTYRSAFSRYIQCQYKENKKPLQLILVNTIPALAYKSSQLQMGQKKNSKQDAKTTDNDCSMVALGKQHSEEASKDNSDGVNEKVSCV
Sequence of D2 receptor (P14416 whole entry): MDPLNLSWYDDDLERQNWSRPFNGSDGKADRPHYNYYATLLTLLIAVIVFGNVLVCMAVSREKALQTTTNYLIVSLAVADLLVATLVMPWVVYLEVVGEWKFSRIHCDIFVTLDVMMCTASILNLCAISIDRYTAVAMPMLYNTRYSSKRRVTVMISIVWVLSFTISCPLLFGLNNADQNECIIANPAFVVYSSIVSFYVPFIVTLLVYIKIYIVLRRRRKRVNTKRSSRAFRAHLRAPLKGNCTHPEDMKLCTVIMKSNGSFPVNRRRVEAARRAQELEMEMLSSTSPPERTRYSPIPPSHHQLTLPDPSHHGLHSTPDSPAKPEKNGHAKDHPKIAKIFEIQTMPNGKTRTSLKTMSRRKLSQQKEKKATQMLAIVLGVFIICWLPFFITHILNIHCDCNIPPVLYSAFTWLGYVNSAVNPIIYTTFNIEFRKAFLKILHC
Sequence of 5-HT7 receptor (Mus musculus, UniProt P32304) (P32304 whole entry): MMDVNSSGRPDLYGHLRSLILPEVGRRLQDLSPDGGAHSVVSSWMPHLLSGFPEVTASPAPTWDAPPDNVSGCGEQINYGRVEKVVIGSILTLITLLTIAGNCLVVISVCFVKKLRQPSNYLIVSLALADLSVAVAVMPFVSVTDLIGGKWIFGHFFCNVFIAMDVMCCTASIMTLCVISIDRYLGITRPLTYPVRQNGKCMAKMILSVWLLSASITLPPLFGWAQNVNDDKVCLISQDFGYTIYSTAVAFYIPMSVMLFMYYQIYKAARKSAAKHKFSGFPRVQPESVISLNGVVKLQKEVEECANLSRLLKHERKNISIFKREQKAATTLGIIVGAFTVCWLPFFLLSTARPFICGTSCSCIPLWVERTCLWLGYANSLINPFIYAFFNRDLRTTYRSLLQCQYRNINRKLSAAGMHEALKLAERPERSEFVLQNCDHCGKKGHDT
Sequence of 5-HT6 receptor (P31388 whole entry): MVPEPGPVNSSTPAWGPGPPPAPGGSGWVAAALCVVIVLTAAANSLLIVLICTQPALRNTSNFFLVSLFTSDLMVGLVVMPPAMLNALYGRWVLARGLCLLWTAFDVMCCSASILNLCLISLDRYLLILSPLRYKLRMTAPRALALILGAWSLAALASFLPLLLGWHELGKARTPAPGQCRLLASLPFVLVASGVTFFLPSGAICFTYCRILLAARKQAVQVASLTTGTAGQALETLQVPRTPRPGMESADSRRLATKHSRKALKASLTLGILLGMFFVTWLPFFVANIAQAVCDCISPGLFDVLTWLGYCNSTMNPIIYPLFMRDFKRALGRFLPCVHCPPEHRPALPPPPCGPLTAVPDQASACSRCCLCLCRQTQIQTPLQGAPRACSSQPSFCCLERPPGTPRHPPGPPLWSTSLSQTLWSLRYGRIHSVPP
Sequence of 5-HT7 receptor (Rattus norvegicus, UniProt P32305) (P32305 whole entry): as the sequence (P32304 whole entry) above, with R27G, S39P, P53L, S279P, C438S counted along it
Sequence of D2-S (short form of D2 receptor) (P14416 1-414 isoform P14416-2): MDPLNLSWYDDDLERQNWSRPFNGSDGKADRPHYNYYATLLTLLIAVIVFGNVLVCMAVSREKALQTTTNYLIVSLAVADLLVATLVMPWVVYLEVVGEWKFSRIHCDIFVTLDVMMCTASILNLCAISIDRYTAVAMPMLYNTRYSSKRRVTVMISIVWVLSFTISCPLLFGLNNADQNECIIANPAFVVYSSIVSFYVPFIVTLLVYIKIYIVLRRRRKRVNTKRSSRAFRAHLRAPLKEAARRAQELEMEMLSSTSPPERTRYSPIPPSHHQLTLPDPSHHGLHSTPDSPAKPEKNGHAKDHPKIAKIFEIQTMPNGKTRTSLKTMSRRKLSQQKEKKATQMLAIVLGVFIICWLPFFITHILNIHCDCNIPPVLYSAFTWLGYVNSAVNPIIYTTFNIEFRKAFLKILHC
Sequence of D1 dopamine receptor (Rattus norvegicus, UniProt P18901) (P18901 whole entry): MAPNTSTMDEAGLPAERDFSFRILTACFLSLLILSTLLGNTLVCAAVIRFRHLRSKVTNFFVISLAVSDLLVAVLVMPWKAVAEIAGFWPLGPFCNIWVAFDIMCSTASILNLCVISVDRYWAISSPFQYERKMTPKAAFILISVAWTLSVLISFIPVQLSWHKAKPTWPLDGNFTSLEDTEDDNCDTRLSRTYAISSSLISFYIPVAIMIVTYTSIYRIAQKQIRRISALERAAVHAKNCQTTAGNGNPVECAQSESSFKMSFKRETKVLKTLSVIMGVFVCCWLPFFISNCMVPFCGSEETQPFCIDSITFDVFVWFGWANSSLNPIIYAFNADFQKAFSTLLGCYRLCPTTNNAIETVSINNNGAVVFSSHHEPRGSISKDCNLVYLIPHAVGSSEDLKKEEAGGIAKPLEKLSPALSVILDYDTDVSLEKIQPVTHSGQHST
Sequence of D1 dopamine receptor (Homo sapiens, UniProt P21728) (P21728 whole entry): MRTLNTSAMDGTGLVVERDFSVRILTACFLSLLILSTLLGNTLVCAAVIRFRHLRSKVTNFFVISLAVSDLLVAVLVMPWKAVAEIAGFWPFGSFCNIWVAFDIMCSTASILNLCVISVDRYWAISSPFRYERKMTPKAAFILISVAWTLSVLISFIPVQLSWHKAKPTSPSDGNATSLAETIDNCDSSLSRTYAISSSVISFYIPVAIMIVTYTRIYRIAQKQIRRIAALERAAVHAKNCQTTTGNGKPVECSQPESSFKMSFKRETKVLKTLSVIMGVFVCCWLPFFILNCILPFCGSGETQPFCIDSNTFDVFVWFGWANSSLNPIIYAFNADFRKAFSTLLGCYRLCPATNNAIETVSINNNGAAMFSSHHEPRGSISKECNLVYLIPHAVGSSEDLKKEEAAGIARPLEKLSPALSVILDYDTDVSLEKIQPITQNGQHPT
Sequence of D2-L (long form of D2 receptor) (P14416 whole entry): as the sequence (P14416 whole entry) above

Take `CCCN1CCC[C@H]2c3c(OC)cccc3OC[C@@H]21.Cl` (stereo in doubt) [CGS-18102A, 10-methoxy-4-propyl-1,2,3,4a,5,10b-hexahydro-4H-[1]-benzopyrano[3,4-b]pyridine hydrochloride]: in series [1] (setting [18]), the “Formula I Affinity Ratio” value is 2.06. Also, the “D2 Affinity” value at D2 receptor is listed as 7.4. At 5-HT2A receptor, the “5-HT2A Affinity” value is on record as 6.6.

For `CN(C)CCCN1c2ccccc2Sc2ccc(Cl)cc21` [Chlorpromazine], the “α1 affinity value (−log KD)” value on α1-adrenoceptor [2] is given as 8.6^16.

Turning to `CN1CCN(C2=Nc3cc(Cl)ccc3Nc3ccccc32)CC1` [Clozapine], the Extra-pyramidal side effects in [3] is given as 3.

For the compound `CN(C)CCO[C@]1(c2ccccc2)C[C@H]2CC[C@]1(C)C2(C)C.O=C(O)/C=C/C(=O)O` [Deramciclane, (1R,2S,4R)-(−)-2-[2-(N,N-dimethylamino)-ethoxy]-2-phenyl-1,7,7-trimethylbicyclo[2.2.1]heptane], the “Formula I Affinity Ratio” value in [1] (setting [18]) is 2.09. On D2 receptor, the “D2 Affinity” value is listed as 7. Also, on 5-HT2A receptor, the “5-HT2A Affinity” value is reported as 8. The “5-HT2C Affinity” value on 5-HT2C receptor [4] is reported as 7.8.

Regarding `O=C1NCN(c2ccccc2)C12CCN(CCCC(c1ccc(F)cc1)c1ccc(F)cc1)CC2` [Fluspirilene], the “(2C/2A) + (2C/D2)” value in series [1] (Table 2, sum of affinity ratios from data of Table 1) is 1.33. In addition, the “α1 affinity value (−logKi)” value on α1-adrenoceptor [5] was 7.0^6. The “sigma affinity value (−logKi)” value on sigma, σ receptor is 6.8^6. In addition, the “D2-S affinity value (−logKi)” value in series [6] was 8.9^6. In addition, the “5-HT7 affinity value (−logKi)” value at 5-HT7 receptor [7] is 7.5^6. For the same compound, on α2-adrenoceptor (species for α2 not stated), the “α2 affinity value (−logKi)” value is <5.3^6. Also, the “mACh affinity value (−logKi)” value in [8] is recorded as <5.3^6. For the same compound, on D4 dopamine receptor, the “D4 affinity value (−logKi)” value is 8.4^6. Besides, the “5-HT3 affinity value (−logKi)” value at 5-HT3 receptor is listed as <5.3^6. In addition, the “5-HT1A affinity value (−logKi)” value on 5-HT1A receptor is reported as 7.3^6. In addition, on 5-HT2C receptor [9], the “5-HT2C affinity value (−logKi)” value was 5.7^6. In addition, the “D2-L affinity value (−logKi)” value in series [10] is recorded as 9.2^6.

On to `CN(C)CCSc1nc2ccccc2cc1-c1ccccc1` [ICI-169369], for which the “Formula I Affinity Ratio” value in series [1] (setting [18]) is listed as 2.27. Further, the “D2 Affinity” value on D2 receptor is given as 6.5. Further, at 5-HT2A receptor, the “5-HT2A Affinity” value is reported as 7.7. At 5-HT2C receptor [4], the “5-HT2C Affinity” value is 8.

Consider `CC(C)N1CCN(CCN2CCC(c3cn(-c4ccc(F)cc4)c4cc(Cl)ccc34)CC2)C1=O` [LU-26042], for which the “Formula I Affinity Ratio” value in series [1] came to 2.02. Besides, on D2 receptor, the “D2 Affinity” value was 6.9. Also, the “5-HT2A Affinity” value on 5-HT2A receptor is given as 8.8. In addition, the “5-HT2C Affinity” value on 5-HT2C receptor [4] is 7.8.

On to `Cc1cc2c(s1)Nc1ccccc1N=C2N1CCN(C)CC1` [Olanzapine], for which the Extra-pyramidal side effects in series [3] was 1-2. For the same compound, the Increases prolactin levels in [11] is listed as 2. The “Weight Gain” value in series [12] was 2. For the same compound, the “weight gain (in words)” value in series [12] (text b109, literature reports) was “do cause weight gain”.

Turning to `COc1cc(OC)c(C(=O)CCCCN2CCC3(CC2)NC(=O)NC3=O)cc1NS(=O)(=O)c1ccc(C(F)(F)F)cc1` [RS-102221], the “Formula I Affinity Ratio” value in series [1] (setting [18]) is recorded as 2.78. In addition, the “5-HT2A Affinity” value at 5-HT2A receptor was 5.8. The “5-HT2C Affinity” value at 5-HT2C receptor [4] is reported as 8.2.

Regarding `CCN1CCCC1CNC(=O)c1cc(S(N)(=O)=O)ccc1OC` (stereo not drawn) [Sulpiride], at 5-HT6 receptor, the “5-HT6 affinity value (−logKi)” value was <5.3^2. In addition, the “5-HT7 affinity value (−logKi)” value at 5-HT7 receptor [13] is reported as <5.3^2. The “D1 affinity value (−logKi)” value on D1 dopamine receptor [14] is listed as <5^9.

With `CSc1ccc2c(c1)N(CCC1CCCCN1C)c1ccccc1S2` (stereo not drawn) [Thioridazine], the “D4 affinity value (−logKi)” value on D4 dopamine receptor is on record as 7.9^12.

In the case of `O=C1Cc2cc(CCN3CCN(c4nsc5ccccc45)CC3)c(Cl)cc2N1` [Ziprasidone], the “sigma affinity value (−logKi)” value on sigma, σ receptor is given as <5.3^6. Moreover, the “D1 affinity value (−logKi)” value on D1 dopamine receptor [15] is given as 6.3^14. Moreover, the Extra-pyramidal side effects in series [3] is listed as 2. For the same compound, the “5-HT7 affinity value (−logKi)” value on 5-HT7 receptor [7] is 8.3^6; at 5-HT7 receptor [13], 7.6^14. Further, the “5-HT6 affinity value (−logKi)” value at 5-HT6 receptor was 6.9^14. Also, the “α2 affinity value (−logKi)” value on α2-adrenoceptor (no reference given) is less than 6. In addition, the “α1 affinity value (−logKi)” value at α1-adrenoceptor [16] is 8.0^14. In addition, the Increases prolactin levels in series [11] is listed as 3. For the same compound, the Improvement negative symptoms in series [17] is on record as 2. Besides, at 5-HT3 receptor, the “5-HT3 affinity value (−logKi)” value is 5.5^6. Moreover, the “Weight Gain” value in [12] is recorded as 3. Moreover, the “5-HT1A affinity value (−logKi)” value on 5-HT1A receptor is 7.9^6. Also, the “5-HT2C affinity value (−logKi)” value on 5-HT2C receptor [9] was 7.9^6.
